The record followed here is US20200316096A1, “COMBINATION OF DIET AND DRUG THERAPY FOR TREATING CANCER” (Trustees of Boston College, priority 2019, published 2020).

The series can be described thus: LC/MS/MS analysis of DON in plasma and VM-M3 brain tumour tissue. The class given is in vivo, mouse (VM/Dk). The following applies: for concentration of DON in VM-M3 tumour tissue, mice fed KD-R versus mice fed SD-UR: 60 min after i.p. DON 1.0 mg/kg. The method, then: FIGS. 4A and 4B. Restricted Ketogenic diet increases DON delivery to the VM-M3 GBM. The content of DON in the VM-M3 brain tumour tissue was quantified using two LC/MS/MS procedures, as described in Methods. The brain tissue was analyzed for DON content 60 minutes after i.p. DON injection. The values in experiment a are presented as mean of two independent samples, while the values in experiment b are presented as the mean±SEM (n=3). The difference between the two groups in experiment b was significant (P<0.01).
Plasma and brain tissues were prepared for DON analysis one hour after systemic DON injection, as described in Methods below. […] In another independent experiment, using a similar analytical system, the concentration of DON in the VM-M3 tumour tissue was about 3-fold greater in mice fed the KD-R than in mice fed the SD-UR (FIG. 4B). In both methods of measurement, DON delivery to the brain was greater in the mice fed the KD-R than in the mice fed the SD-UR (FIGS. 4A and 4B). DON was detected in plasma 10 min after i.p. injection (data not shown) and was detected in brain tissue 60 min following injection. These findings indicate that the KD-R facilitated delivery of DON to the VM-M3 tumour tissue.
Two independent LC-MS instruments and procedures were used to measure the amount of DON in the blood and in the VM-M3 tumour tissues. This was done to validate the accuracy of the procedures. A Triple quad method (Agilent 6460) was used to analyze DON in the first procedure (FIG. 4A). Mice were injected with 1.0 mg/kg of DON at either 10 min or 60 min before collection of the brains and blood. The brains were immediately flash frozen. Blood samples were collected before removal of the brain. 3N HCl+n-butanol (250 μl) was added to 50 μl of plasma, vortexed and then centrifuged at 16,000×g for 5 min to precipitate proteins. A 200 μl aliquot of the supernatant was transferred to a 1.5 ml tube and incubated at 60° C. for 30 min in a shaking water bath to perform the DON derivatization reaction. For the brain tissue, 5 μl of n-butanol containing 3N HCl was added per milligram tissue. The tissue sample was then homogenized with a glass pestle and was then vortexed and centrifuged, and prepared similarly to the plasma samples. Standard solutions were prepared by serial dilution to generate concentrations from 10 nM to 100 μM. DON was added to untreated mouse plasma or brain tissue to generate an internal standard curve. A high-resolution LC-MS QToF method (Agilent 6550) was used to analyze DON in the second procedure (FIG. 4B). Mice were injected with DON as above. Pre-weighed frozen brain tissue was transferred to a tube containing ceramic beads (Omni tubes). 3M HCl+butanol was added at a concentration of 5 μI/mg of tissue. […]

Regarding `[N-]=[N+]=CC(=O)CC[C@H](N)C(=O)O` [DON, 6-diazo-5-oxo-L-norleucine], where the note is “10 min after i.p. injection”, the DON in plasma entry is “detected”. Also, the “DON in brain tissue” value (60 min following injection) is given as “detected”. For the same compound, the “concentration of DON in VM-M3 tumour tissue, mice fed KD-R versus mice fed SD-UR” value runs as follows: (first procedure (FIG. 4A)) “about 2 fold”; (independent experiment (FIG. 4B)) “about 3 fold”.
